Results taken from PubChem BioAssay (NCI).
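Where inhibition never reached the appropriate level, the endpoint shown equals the highest concentration tested. Otherwise, values were interpolated linearly from a five-concentration, 48-hour dose response in 96-well plates. GI50 marks 50% less growth. TGI: total growth inhibition.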

Legend:
Assay in all cases: NCI-60 cell line screen, 48 h
[1] = tested on: NCI-H226 lung
[2] = tested on: NCI-H23 lung
[3] = tested on: NCI-H460 lung
[4] = tested on: NCI-H522 lung
[5] = tested on: NCI/ADR-RES ovarian
[6] = tested on: OVCAR-3 ovarian
[7] = tested on: OVCAR-4 ovarian
[8] = tested on: OVCAR-5 ovarian
[9] = tested on: OVCAR-8 ovarian
[10] = tested on: RPMI-8226 leukemia
[11] = tested on: RXF 393 renal
[12] = tested on: SF-268 CNS
[13] = tested on: SF-295 CNS
[14] = tested on: SF-539 CNS
[15] = tested on: SK-MEL-2 melanoma
[16] = tested on: SK-MEL-28 melanoma
[17] = tested on: SK-MEL-5 melanoma
[18] = tested on: SK-OV-3 ovarian
[19] = tested on: SN12C renal
[20] = tested on: SNB-19 CNS
[21] = tested on: SNB-75 CNS
[22] = tested on: SR leukemia
[23] = tested on: SW-620 colon
[24] = tested on: T-47D breast
[25] = tested on: TK-10 renal
[26] = tested on: U251 CNS
[27] = tested on: UACC-257 melanoma
[28] = tested on: UACC-62 melanoma
[29] = tested on: UO-31 renal

Question: For `CC1(C)CC([P+](c2ccccc2)(c2ccccc2)c2ccccc2)=NN1`, which TGI [1] is on record?
Answer: 84.5 µM

Question: What about the GI50 [2] of the same molecule?
Answer: 4.28 µM

Question: What about the TGI [2] of the same molecule?
Answer: > 100 µM

Question: And the GI50 [3]?
Answer: 6.09 µM

Question: What about the TGI [3] of the same molecule?
Answer: > 100 µM

Question: What about the GI50 [4] of the same molecule?
Answer: 2.52 µM

Question: And the TGI [4]?
Answer: > 100 µM

Question: And the GI50 [5]?
Answer: > 100 µM

Question: And the TGI [5]?
Answer: > 100 µM

Question: What about the GI50 [6] of the same molecule?
Answer: 2.18 µM

Question: And the TGI [6]?
Answer: 73.7 µM

Question: What about the GI50 [7] of the same molecule?
Answer: 3.07 µM

Question: And the TGI [7]?
Answer: > 100 µM

Question: And the GI50 [8]?
Answer: 18.7 µM

Question: What about the TGI [8] of the same molecule?
Answer: > 100 µM

Question: And the GI50 [9]?
Answer: 5.92 µM

Question: And the TGI [9]?
Answer: > 100 µM

Question: What about the GI50 [10] of the same molecule?
Answer: 4.41 µM

Question: And the TGI [10]?
Answer: > 100 µM

Question: What about the GI50 [11] of the same molecule?
Answer: 28.2 µM

Question: And the TGI [11]?
Answer: > 100 µM

Question: And the GI50 [12]?
Answer: 5.09 µM

Question: And the TGI [12]?
Answer: > 100 µM

Question: What about the GI50 [13] of the same molecule?
Answer: 8.68 µM

Question: And the TGI [13]?
Answer: 43.9 µM

Question: What about the GI50 [14] of the same molecule?
Answer: 6.13 µM

Question: And the TGI [14]?
Answer: 97.3 µM

Question: What about the GI50 [15] of the same molecule?
Answer: 5.09 µM

Question: And the TGI [15]?
Answer: > 100 µM

Question: What about the GI50 [16] of the same molecule?
Answer: 8.67 µM

Question: And the TGI [16]?
Answer: > 100 µM

Question: What about the GI50 [17] of the same molecule?
Answer: 3.13 µM

Question: And the TGI [17]?
Answer: 17.7 µM

Question: And the GI50 [18]?
Answer: 11.7 µM

Question: And the TGI [18]?
Answer: 68.7 µM

Question: And the GI50 [19]?
Answer: 4.39 µM

Question: And the TGI [19]?
Answer: > 100 µM

Question: What about the GI50 [20] of the same molecule?
Answer: 5.03 µM

Question: What about the TGI [20] of the same molecule?
Answer: > 100 µM

Question: And the GI50 [21]?
Answer: 5.3 µM

Question: And the TGI [21]?
Answer: > 100 µM

Question: And the GI50 [22]?
Answer: 1.2 µM

Question: And the TGI [22]?
Answer: 5.51 µM

Question: What about the GI50 [23] of the same molecule?
Answer: 4.57 µM

Question: And the TGI [23]?
Answer: > 100 µM

Question: What about the GI50 [24] of the same molecule?
Answer: 0.91 µM

Question: What about the TGI [24] of the same molecule?
Answer: 8.44 µM

Question: What about the GI50 [25] of the same molecule?
Answer: 1.47 µM

Question: What about the TGI [25] of the same molecule?
Answer: 16.6 µM

Question: What about the GI50 [26] of the same molecule?
Answer: 2 µM

Question: What about the TGI [26] of the same molecule?
Answer: > 100 µM

Question: And the GI50 [27]?
Answer: 2.82 µM

Question: And the TGI [27]?
Answer: > 100 µM

Question: What about the GI50 [28] of the same molecule?
Answer: 3.17 µM

Question: What about the TGI [28] of the same molecule?
Answer: > 100 µM

Question: What about the GI50 [29] of the same molecule?
Answer: > 100 µM

Question: What about the TGI [29] of the same molecule?
Answer: > 100 µM
